ChEMBL document CHEMBL1201862, “PubChem BioAssay data set” (2004)
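Five compound concentrations were applied to cells in 96-well plates for 48 hours; endpoints were derived by simple linear interpolation of the resulting dose-response curve. GI50 marks 50% less growth.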 Activity calls are given as the source filed them. No stated cut-off is given here; in the data, active = GI50 up to about 1.1 µM and inactive = higher.

Experiments:
Test in all cases: DTP human tumour cell line panel, 48 h
HCT-116 = system: HCT-116
OVCAR-4 = system: OVCAR-4
RXF 393 = system: RXF 393
OVCAR-3 = system: OVCAR-3
SNB-75 = system: SNB-75
TK-10 = system: TK-10
OVCAR-8 = system: OVCAR-8
SK-MEL-28 = system: SK-MEL-28
KM12 = system: KM12
HOP-92 = system: HOP-92
UACC-62 = system: UACC-62
HOP-62 = system: HOP-62
SNB-19 = system: SNB-19
UACC-257 = system: UACC-257
MDA-MB-435 = system: MDA-MB-435
MCF7 = system: MCF7
A549 = system: A549
U-251 = system: U-251
Hs-578T = system: Hs-578T
SN12C = system: SN12C
UO-31 = system: UO-31
SK-MEL-5 = system: SK-MEL-5
NCI-H23 = system: NCI-H23
LOX IMVI = system: LOX IMVI
M14 = system: M14
BT-549 = system: BT-549
MDA-N = system: MDA-N
DU-145 = system: DU-145
HCC 2998 = system: HCC 2998
HCT-15 = system: HCT-15
PC-3 = system: PC-3
SF-268 = system: SF-268
COLO 205 = system: COLO 205
ACHN = system: ACHN
NCI-H522 = system: NCI-H522
786-0 = system: 786-0
NCI-H460 = system: NCI-H460
SW-620 = system: SW-620
T47D = system: T47D
SF-295 = system: SF-295
EKVX = system: EKVX
HT-29 = system: HT-29
SR = system: SR
OVCAR-5 = system: OVCAR-5
SK-MEL-2 = system: SK-MEL-2
NCI-H226 = system: NCI-H226
NCI/ADR-RES = system: NCI/ADR-RES
A498 = system: A498
CAKI-1 = system: CAKI-1
MDA-MB-231 = system: MDA-MB-231
IGROV-1 = system: IGROV-1
Malme-3M = system: Malme-3M
K562 = system: K562
SF-539 = system: SF-539
RPMI-8226 = system: RPMI-8226
SK-OV-3 = system: SK-OV-3

With `N=C(N)N/N=C(\c1ccc(Cl)cc1)C1CC1` as the molecule, how does the GI50 (HCT-116) read?
Its GI50 is 16 µM (inactive).

What about the GI50 (OVCAR-4) of the same molecule?
Its GI50 is 33 µM (inactive).

And the GI50 (RXF 393)?
Its GI50 is 33.9 µM (inactive).

And the GI50 (OVCAR-3)?
Its GI50 is 19.4 µM (inactive).

What about the GI50 (SNB-75) of the same molecule?
The GI50 was 22.2 µM (inactive).

What about the GI50 (TK-10) of the same molecule?
Its GI50 is 16.3 µM (inactive).

What about the GI50 (OVCAR-8) of the same molecule?
Its GI50 is 20.7 µM (inactive).

What about the GI50 (SK-MEL-28) of the same molecule?
The GI50 was 19.3 µM (inactive).

What about the GI50 (KM12) of the same molecule?
The GI50 was 18.5 µM (inactive).

And the GI50 (HOP-92)?
The GI50 was 22.3 µM (inactive).

And the GI50 (UACC-62)?
The GI50 was 15.9 µM (inactive).

What about the GI50 (HOP-62) of the same molecule?
Its GI50 is 19 µM (inactive).

What about the GI50 (SNB-19) of the same molecule?
The GI50 was 29 µM (inactive).

And the GI50 (UACC-257)?
Its GI50 is 14.5 µM (inactive).

What about the GI50 (MDA-MB-435) of the same molecule?
The GI50 was 16.9 µM (inactive).

What about the GI50 (MCF7) of the same molecule?
The GI50 was 17.1 µM (inactive).

And the GI50 (A549)?
The GI50 was 32.4 µM (inactive).

And the GI50 (U-251)?
Its GI50 is 14.2 µM (inactive).

What about the GI50 (Hs-578T) of the same molecule?
The GI50 was 25 µM (inactive).

And the GI50 (SN12C)?
The GI50 was 19.1 µM (inactive).

What about the GI50 (UO-31) of the same molecule?
The GI50 was 24.6 µM (inactive).

And the GI50 (SK-MEL-5)?
The GI50 was 15.6 µM (inactive).

What about the GI50 (NCI-H23) of the same molecule?
Its GI50 is 27.1 µM (inactive).

What about the GI50 (LOX IMVI) of the same molecule?
The GI50 was 16.4 µM (inactive).

And the GI50 (M14)?
Its GI50 is 15.4 µM (inactive).

What about the GI50 (BT-549) of the same molecule?
The GI50 was 24.6 µM (inactive).

And the GI50 (MDA-N)?
Its GI50 is 16.1 µM (inactive).

And the GI50 (DU-145)?
The GI50 was 22.6 µM (inactive).

And the GI50 (HCC 2998)?
Its GI50 is 7 µM (inactive).

What about the GI50 (HCT-15) of the same molecule?
The GI50 was 19 µM.

What about the GI50 (PC-3) of the same molecule?
The GI50 was 16.2 µM (inactive).

And the GI50 (SF-268)?
The GI50 was 28.9 µM (inactive).

What about the GI50 (COLO 205) of the same molecule?
The GI50 was 17.2 µM (inactive).

And the GI50 (ACHN)?
The GI50 was 21.8 µM (inactive).

And the GI50 (NCI-H522)?
The GI50 was 14.8 µM (inactive).

And the GI50 (786-0)?
Its GI50 is 16.9 µM (inactive).

And the GI50 (NCI-H460)?
The GI50 was 15.6 µM (inactive).

And the GI50 (SW-620)?
The GI50 was 18.4 µM (inactive).

What about the GI50 (T47D) of the same molecule?
Its GI50 is 19.5 µM (inactive).

And the GI50 (SF-295)?
Its GI50 is 21.3 µM (inactive).

And the GI50 (EKVX)?
The GI50 was 23.9 µM (inactive).

What about the GI50 (HT-29) of the same molecule?
The GI50 was 16.5 µM (inactive).

What about the GI50 (SR) of the same molecule?
Its GI50 is 11.4 µM (inactive).

And the GI50 (OVCAR-5)?
Its GI50 is 17.9 µM (inactive).

And the GI50 (SK-MEL-2)?
Its GI50 is 18.3 µM (inactive).

And the GI50 (NCI-H226)?
The GI50 was 16.3 µM (inactive).

And the GI50 (NCI/ADR-RES)?
Its GI50 is 25.4 µM (inactive).

What about the GI50 (A498) of the same molecule?
Its GI50 is 14.4 µM (inactive).

What about the GI50 (CAKI-1) of the same molecule?
The GI50 was 39 µM (inactive).

And the GI50 (MDA-MB-231)?
Its GI50 is 18.5 µM (inactive).

And the GI50 (IGROV-1)?
Its GI50 is 16.2 µM (inactive).

And the GI50 (Malme-3M)?
Its GI50 is 14.9 µM (inactive).

And the GI50 (K562)?
The GI50 was 34.8 µM (inactive).

And the GI50 (SF-539)?
The GI50 was 17.2 µM (inactive).

What about the GI50 (RPMI-8226) of the same molecule?
Its GI50 is 18.5 µM (inactive).

And the GI50 (SK-OV-3)?
The GI50 was 27.5 µM (inactive).
